Results published in ChEMBL document CHEMBL5465560, “Selectivity Literature for EUbOPEN Chemogenomic Library” (2024).
Blank lines part the entries; values can stand above or below the compound they belong to.

Assays:
[1] = Selectivity interaction (Eurofins CEREP Diversity Profile (receptors and ion channels)) EUB0000279b NPY; conditions: at 10 µM
[2] = target: T1, Dual specificity mitogen-activated protein kinase kinase 5 (Homo sapiens) (UniProt Q13163); experiment: Selectivity interaction (KinomeScan (DiscoverX)) EUB0000607a MAP2K5; conditions: at 10 µM
T1 sequence (whole entry): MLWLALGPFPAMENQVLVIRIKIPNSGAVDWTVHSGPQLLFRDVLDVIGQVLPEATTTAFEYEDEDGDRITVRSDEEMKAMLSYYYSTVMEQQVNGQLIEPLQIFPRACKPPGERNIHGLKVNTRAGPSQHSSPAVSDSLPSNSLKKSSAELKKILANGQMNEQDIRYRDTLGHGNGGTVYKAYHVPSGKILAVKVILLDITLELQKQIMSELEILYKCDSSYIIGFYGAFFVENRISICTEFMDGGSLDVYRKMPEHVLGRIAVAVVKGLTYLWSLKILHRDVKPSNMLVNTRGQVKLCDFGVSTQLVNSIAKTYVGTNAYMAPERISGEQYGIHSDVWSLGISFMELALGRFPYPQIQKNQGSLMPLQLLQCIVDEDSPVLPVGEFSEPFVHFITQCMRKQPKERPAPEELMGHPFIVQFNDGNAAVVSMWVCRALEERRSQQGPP

[3] = target: Serine/threonine-protein kinase PRP4 homolog (Homo sapiens) (UniProt Q13523); experiment: Selectivity interaction (ActivX KiNativ screen (kinase selectivity in THP-1 cell lysates)) EUB0000639a PRPF4; type: subcellular; conditions: lysate, at 0.2 µM
Sequence of Serine/threonine-protein kinase PRP4 homolog (Homo sapiens) (Q13523 whole entry): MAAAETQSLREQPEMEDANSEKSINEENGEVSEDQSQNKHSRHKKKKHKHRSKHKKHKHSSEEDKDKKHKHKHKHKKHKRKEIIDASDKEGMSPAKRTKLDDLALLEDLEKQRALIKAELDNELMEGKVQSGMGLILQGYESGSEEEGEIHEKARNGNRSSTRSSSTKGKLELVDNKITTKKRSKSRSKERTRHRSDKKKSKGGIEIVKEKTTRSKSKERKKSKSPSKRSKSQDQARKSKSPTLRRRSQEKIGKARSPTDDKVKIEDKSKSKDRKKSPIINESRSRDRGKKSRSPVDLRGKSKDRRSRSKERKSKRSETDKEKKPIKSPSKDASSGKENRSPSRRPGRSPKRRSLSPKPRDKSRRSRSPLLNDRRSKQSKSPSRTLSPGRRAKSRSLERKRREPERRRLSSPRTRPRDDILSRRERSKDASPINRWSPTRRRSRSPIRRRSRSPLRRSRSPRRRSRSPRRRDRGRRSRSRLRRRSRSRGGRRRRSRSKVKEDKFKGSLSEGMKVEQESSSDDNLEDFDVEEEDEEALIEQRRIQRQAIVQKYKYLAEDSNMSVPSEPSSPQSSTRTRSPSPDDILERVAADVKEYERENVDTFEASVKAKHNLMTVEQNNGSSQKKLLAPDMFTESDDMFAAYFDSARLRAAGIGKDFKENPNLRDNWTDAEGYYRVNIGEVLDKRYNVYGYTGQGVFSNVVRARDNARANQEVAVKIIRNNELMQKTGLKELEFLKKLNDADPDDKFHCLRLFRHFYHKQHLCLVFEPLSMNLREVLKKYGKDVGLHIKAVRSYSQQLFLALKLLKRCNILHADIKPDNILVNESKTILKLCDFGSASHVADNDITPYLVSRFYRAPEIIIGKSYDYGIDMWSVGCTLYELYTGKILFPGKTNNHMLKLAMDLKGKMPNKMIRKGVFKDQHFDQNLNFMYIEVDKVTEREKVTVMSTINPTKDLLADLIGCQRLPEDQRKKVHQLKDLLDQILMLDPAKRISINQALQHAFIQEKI

[4] = target: Serine/threonine-protein kinase SIK3 (Homo sapiens) (UniProt Q9Y2K2); experiment: Selectivity interaction (ProQinase) EUB0000171b SIK3
Sequence of Serine/threonine-protein kinase SIK3 (Homo sapiens) (Q9Y2K2 whole entry, looked up): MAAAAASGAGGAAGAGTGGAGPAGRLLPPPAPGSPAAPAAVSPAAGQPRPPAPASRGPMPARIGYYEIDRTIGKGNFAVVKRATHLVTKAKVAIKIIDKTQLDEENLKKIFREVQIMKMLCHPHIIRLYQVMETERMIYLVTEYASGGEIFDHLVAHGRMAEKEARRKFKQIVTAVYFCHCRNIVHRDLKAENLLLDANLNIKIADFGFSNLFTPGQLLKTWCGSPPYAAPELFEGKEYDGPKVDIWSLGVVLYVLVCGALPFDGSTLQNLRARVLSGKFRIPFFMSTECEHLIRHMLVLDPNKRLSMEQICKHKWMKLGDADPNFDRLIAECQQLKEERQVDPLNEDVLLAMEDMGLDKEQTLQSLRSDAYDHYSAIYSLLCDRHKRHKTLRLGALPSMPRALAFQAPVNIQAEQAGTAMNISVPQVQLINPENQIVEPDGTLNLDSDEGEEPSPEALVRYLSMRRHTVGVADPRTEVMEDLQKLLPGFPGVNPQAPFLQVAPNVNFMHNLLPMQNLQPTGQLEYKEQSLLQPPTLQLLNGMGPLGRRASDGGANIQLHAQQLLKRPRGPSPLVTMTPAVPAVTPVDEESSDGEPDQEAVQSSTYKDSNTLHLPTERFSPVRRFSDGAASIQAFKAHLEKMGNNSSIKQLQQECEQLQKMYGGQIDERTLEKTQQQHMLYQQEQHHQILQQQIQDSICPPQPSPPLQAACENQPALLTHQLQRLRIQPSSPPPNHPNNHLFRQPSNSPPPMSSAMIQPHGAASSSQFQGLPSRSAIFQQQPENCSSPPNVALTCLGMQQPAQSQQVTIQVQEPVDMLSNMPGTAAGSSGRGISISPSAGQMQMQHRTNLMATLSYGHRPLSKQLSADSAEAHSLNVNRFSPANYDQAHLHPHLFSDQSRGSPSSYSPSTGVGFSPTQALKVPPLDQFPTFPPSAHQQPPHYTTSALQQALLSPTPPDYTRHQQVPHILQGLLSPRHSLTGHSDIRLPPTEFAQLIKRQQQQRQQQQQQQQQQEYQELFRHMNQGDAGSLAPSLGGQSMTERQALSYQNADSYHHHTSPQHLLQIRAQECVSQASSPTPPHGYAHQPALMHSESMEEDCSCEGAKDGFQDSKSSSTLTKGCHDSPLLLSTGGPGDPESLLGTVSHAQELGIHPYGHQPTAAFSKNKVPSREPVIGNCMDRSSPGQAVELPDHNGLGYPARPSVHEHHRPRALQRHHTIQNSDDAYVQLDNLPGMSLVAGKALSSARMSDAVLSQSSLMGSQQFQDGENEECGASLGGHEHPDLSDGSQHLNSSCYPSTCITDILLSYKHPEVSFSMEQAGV

[5] = target: Serine/threonine-protein kinase 38-like (Homo sapiens) (UniProt Q9Y2H1); experiment: Selectivity interaction (KinomeScan (DiscoverX)) EUB0000595a STK38L; conditions: at 10 µM
Sequence of Serine/threonine-protein kinase 38-like (Homo sapiens) (Q9Y2H1 2-464 limits assumed): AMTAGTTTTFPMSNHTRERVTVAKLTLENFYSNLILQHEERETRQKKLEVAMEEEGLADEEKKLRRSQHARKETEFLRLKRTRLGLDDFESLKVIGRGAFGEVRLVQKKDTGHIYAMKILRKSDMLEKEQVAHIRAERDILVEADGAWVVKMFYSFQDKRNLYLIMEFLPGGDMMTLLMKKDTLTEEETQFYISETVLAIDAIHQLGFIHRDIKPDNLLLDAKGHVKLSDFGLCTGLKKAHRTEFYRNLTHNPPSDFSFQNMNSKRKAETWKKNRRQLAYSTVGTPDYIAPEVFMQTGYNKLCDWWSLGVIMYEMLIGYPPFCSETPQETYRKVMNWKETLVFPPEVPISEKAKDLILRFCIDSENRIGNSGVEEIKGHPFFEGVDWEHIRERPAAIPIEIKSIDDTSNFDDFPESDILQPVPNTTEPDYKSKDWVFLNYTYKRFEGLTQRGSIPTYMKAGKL

[6] = target: T2, Protein kinase C epsilon type (Homo sapiens) (UniProt Q02156); experiment: Selectivity interaction (KinomeScan (DiscoverX)) EUB0000655a PRKCE; conditions: at 10 µM
T2 sequence (whole entry): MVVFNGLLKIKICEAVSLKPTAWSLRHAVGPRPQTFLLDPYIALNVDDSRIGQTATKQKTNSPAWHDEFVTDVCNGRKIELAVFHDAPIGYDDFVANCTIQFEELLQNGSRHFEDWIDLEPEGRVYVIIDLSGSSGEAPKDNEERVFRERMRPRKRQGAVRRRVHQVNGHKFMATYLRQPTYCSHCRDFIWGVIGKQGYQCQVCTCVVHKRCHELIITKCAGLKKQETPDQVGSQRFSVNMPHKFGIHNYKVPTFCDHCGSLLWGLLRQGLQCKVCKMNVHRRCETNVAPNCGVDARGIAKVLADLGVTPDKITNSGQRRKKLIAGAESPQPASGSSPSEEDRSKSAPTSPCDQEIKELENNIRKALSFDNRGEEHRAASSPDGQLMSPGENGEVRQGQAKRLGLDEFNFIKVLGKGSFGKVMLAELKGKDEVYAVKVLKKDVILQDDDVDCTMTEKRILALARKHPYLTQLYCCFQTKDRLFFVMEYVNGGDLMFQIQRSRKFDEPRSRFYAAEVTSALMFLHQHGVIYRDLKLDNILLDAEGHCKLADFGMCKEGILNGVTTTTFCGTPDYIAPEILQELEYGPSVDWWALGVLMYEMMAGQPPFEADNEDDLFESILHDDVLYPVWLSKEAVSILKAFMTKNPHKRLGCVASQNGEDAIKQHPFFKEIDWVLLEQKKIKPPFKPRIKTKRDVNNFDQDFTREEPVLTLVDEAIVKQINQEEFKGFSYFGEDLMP

[7] = target: T3, Ephrin type-A receptor 6 (Homo sapiens) (UniProt Q9UF33); experiment: Selectivity interaction (KinomeScan (DiscoverX)) EUB0000655a EPHA6; conditions: at 10 µM
T3 sequence (whole entry): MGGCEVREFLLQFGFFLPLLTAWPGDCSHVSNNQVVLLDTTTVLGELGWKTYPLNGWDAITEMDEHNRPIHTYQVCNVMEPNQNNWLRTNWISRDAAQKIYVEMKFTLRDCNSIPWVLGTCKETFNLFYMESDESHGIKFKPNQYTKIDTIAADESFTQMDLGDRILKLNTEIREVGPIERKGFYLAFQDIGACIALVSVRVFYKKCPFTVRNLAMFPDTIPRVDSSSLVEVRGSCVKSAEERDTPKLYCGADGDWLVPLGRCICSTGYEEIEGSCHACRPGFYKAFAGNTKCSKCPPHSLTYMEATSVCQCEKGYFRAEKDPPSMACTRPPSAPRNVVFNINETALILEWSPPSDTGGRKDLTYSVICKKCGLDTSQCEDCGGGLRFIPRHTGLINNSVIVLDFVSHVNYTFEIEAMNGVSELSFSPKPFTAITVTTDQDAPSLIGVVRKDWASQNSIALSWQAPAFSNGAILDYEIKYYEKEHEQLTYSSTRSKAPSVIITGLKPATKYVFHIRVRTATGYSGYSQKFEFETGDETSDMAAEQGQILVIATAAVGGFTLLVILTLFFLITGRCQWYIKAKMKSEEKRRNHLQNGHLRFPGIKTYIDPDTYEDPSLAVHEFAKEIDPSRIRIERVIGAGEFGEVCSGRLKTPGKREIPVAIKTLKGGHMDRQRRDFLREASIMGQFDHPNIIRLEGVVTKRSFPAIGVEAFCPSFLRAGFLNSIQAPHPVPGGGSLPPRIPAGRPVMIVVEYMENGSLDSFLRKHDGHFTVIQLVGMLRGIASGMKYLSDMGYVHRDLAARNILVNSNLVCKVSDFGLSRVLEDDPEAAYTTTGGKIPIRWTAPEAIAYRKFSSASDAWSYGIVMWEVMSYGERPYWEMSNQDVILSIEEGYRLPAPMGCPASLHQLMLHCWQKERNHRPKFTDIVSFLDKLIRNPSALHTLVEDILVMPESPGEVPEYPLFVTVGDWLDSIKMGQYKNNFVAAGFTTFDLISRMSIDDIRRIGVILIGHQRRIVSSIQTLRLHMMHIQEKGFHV

[8] = target: Cyclin-dependent kinase 8 (Homo sapiens, UniProt P49336); conditions: at 10 µM
Sequence of Cyclin-dependent kinase 8 (P49336 whole entry): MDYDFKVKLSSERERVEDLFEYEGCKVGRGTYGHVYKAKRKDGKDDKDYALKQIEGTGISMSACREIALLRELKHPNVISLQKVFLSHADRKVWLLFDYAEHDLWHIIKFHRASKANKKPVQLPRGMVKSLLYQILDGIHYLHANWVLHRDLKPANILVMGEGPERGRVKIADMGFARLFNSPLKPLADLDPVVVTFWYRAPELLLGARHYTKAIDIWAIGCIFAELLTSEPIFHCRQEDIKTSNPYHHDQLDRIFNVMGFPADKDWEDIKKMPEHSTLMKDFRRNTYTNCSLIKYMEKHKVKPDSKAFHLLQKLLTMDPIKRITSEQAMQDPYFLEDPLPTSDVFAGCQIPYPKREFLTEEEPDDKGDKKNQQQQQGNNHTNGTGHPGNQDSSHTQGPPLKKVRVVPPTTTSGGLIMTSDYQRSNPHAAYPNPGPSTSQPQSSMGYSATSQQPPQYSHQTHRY

% of control [1]: 123%
SMILES: CC(=O)c1cc(-c2ccccc2OCC2CC2)c2ncccn12

SMILES: CNC(=O)Nc1ccc(-c2nc(N3CC4CCC(C3)O4)c3cnn(C4CCC5(CC4)OCCO5)c3n2)cc1
% of control [2]: 93%

% of inhibition [3]: 28.3%
SMILES: CC[C@@H]1[C@H](F)C(=O)N[C@@H]1COc1nccc2cc(C(N)=O)c(OC)cc12 [ZIMLOVISERTIB]

% of control ([4]; at 1 µM): 65%
% of control ([4]; at 5 µM): 47%
SMILES: C=CC(=O)Nc1cccc(C(=O)Nc2ccc(Nc3cc(-c4[nH]c(SC)nc4C)ccn3)cc2)c1

SMILES: COCC(=O)NC/C=C/c1ccc2ncnc(Nc3ccc(Oc4ccc(C)nc4)c(C)c3)c2c1 [CP-724714]
% of control [5]: 100%

SMILES: CN(C)CCOc1ccc(-c2nc(-c3ccncc3)c(-c3ccc4c(c3)CC/C4=N\O)[nH]2)cc1
% of control [6]: 100%
% of control [7]: 88%

SMILES: Cc1cc([C@@H](C)Nc2ccccc2C(=O)O)c2nc(N3CCOCC3)cc(=O)n2c1 [AZD-6482]
% of control [8]: 79%
